Reference: article PMC7738869, “A novel STAT3 inhibitor W2014-S regresses human non-small cell lung cancer xenografts and sensitizes EGFR-TKI acquired resistance” (Theranostics, 2021)

How the values were obtained:
[1] = test system: A549 cells; experiment: Cell viability assay (CCK-8), A549; assay type: cell-based; conditions: Homo sapiens, A549, 72 h, read-out: IC50 cell proliferation
Protocol: (§1) Cell proliferation was measured using the Cell Counting Kit-8 (CCK-8, B34304, Bimake, USA). A549 (2 × 10^3/100 μL/well), PC-9 (3 × 10^3/100 μL/well) or PC-9/GR cells (3 × 10^3/100 μL/well) were plated into each well of 96-well plates (Costar, USA). […] Then, 10 μL of CCK-8 was added to each well, and cells were incubated for 1-4 h until the color of untreated controls turned to orange. The absorbance (A) was measured by a microplate reader (FLUOstar Omega-ACU, USA) at test and reference wavelengths of 450 nm. The percentage of growth was calculated as Cell viability (%) = [A (Compound +) - A (Blank) ] / [A (Compound -) - A (Blank) ] × 100%. Cell viability meant proliferation of cells. Each experiment was done at least in triplicate, and thrice independently.

[2] = test system: A549 cells; experiment: Wound healing assay for migration; assay type: cell-based, human; conditions: 48 h
Protocol: The motility of cells was measured by wound healing assay. Cells were seeded into 6-well plates and cultured to 90-100% confluent after 24 h. Wounds were made in each well of 6-well plates using pipette tips. […] The migration of cells was visualized under a microscope (4 ×, Nikon, Japan) and photographed in different time points (0 and 48 h).

[3] = test system: A549 cells; experiment: Transwell cell invasion assay, A549; conditions: A549, 1 μM
Protocol: Transwell invasion assays were performed as previously reported [37] using Transwell chamber (Costar, USA). […] Data from triplicates experiments were pooled and plotted as shown.

[4] = test system: A549 cells; experiment: Colony formation assay, A549; assay type: cell-based, human; conditions: A549, as low as 0.3 μM
[5] = test system: PC-9 cells; experiment: Cell viability assay (CCK-8), PC-9; assay type: cell-based; conditions: Homo sapiens, PC-9, 72 h, read-out: IC50 cell proliferation
Protocol: as §1

[6] = test system: PC-9 cells; experiment: Colony formation assay, PC-9; assay type: cell-based, human; conditions: PC-9, as low as 0.3 μM
[7] = target: full-length wild-type STAT3 (Homo sapiens, UniProt P40763); experiment: Surface plasmon resonance analysis of binding to STAT3; conditions: SPR
full-length wild-type STAT3, sequence (P40763 whole entry): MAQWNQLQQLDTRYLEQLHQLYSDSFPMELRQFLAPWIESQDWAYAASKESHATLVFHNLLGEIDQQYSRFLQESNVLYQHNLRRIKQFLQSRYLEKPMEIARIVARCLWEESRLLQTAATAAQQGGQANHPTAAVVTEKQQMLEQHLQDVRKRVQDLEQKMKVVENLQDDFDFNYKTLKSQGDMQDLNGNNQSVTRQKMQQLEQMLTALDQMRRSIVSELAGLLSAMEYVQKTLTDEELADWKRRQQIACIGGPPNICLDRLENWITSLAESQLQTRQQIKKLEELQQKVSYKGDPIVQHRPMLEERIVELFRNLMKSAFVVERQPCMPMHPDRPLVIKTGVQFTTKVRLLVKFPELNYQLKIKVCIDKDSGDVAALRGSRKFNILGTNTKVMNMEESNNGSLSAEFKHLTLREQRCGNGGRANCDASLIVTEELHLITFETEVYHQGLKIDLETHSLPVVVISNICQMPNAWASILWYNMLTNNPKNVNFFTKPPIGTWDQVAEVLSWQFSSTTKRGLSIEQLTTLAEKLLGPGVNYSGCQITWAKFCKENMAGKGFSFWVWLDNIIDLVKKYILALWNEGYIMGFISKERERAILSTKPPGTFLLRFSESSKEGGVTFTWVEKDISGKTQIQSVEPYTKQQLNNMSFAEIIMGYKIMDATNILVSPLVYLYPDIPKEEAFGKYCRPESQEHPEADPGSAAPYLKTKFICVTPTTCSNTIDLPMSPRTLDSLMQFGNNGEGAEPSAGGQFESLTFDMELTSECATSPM
Protocol: Biacore 8K and Biacore Insight Evaluation software were used to analyze the interaction between the agents and the protein full-length wild-type STAT3 to detect the binding affinity. Purified STAT3 (100 μg/mL) without Tris and glycerin was injected onto the CM5 Chip (GE, USA) for immobilization. Several concentrations of W2014-S or W2014-R dissolved in running buffer (1×PBS with filtration, 0.01% DMSO) were flown over the chip to produce response signals. The kinetics and affinities were calculated by the Biacore Insight Evolution software, and the results were determined as the binding affinity (KD).

[8] = test system: PC-9/GR cells; experiment: Cell apoptosis assay (Annexin V-FITC/PI flow cytometry), PC-9/GR; assay type: cell-based, human; conditions: gefitinib 2 μM and/or W2014-S 1 μM, 72 h
Protocol: Briefly, aliquots of 2 × 10^5 cells were seeded into 6-well plates and incubated for 24 h at 37 °C. […] After trypsinization and gently washing cells once with medium, the cells were washed twice with cold PBS. The precipitation was resuspended by 400 μL of 1 × binding buffer, and then resuspended cells were transferred into new 1.5 mL EP tubes. Then 3 μL of Annexin V-FITC and 5 μL of propidium iodide were added to the resuspended cells with further incubation at room temperature for 15 min in the dark. The analysis was done on Guava easyCyte (USA) and FlowJo 7.6 software.

[9] = test system: PC-9/GR xenografts; conditions: gefitinib intragastric 20 mg/kg per day, W2014-S 10 mg/kg/day, 21 d
Protocol: For PDX model, the PDX sample was from The Jackson Laboratory. […] The tumor sample were cut into approximately 1 mm^3, and the tissue was pushed under skin of mice by TROCHAR. When tumor volumes reached approximately 100 mm^3, mice were randomly distributed into groups of 7 mice. […] Tumor size was measured every two days by vernier caliper. The average tumor volume in each group was calculated based on the equation for a prolate spheroid (tumor volume = (short-diameter)^2 × large-diameter × π / 6 ) and expressed in mm^3.

Row | IC50 [1] [nM] | IC50 [5] [nM] | Kd [7] [nM] | SMILES | cell migration [2] | cell invasion [3] | colony formation [4] | colony formation [6] | Q1 [8] [%] | Q2 [8] [%] | Q3 [8] [%] | Q4 [8] [%] | xenograft tumor growth [9]
1 | 2420 | 2660 | 3390 | C[C@@H](Oc1ccc(-c2nc3nc(C4=CCN(C(=O)OC(C)(C)C)CC4)ccc3[nH]2)cc1)c1ccccc1 [W2014-R] | slightly inhibition | not | significantly suppressed the colony formation | significantly suppressed the colony formation | – | – | – | – | –
2 | – | – | – | COc1cc2ncnc(Nc3ccc(F)c(Cl)c3)c2cc1OCCCN1CCOCC1 [Gefitinib, reference compound] | – | – | – | – | 0.103 | 4.61 | 3.05 | 92.2 | slight inhibitory effect
